{"source": "ChEMBL document CHEMBL1201862", "about": "“PubChem BioAssay data set” (2004)", "test_in_all_cases": "NCI anticancer screen, dose series, 48 h", "key": {"DMS-114": {"tested_on": "DMS-114"}, "K562": {"tested_on": "K562"}, "UO-31": {"tested_on": "UO-31"}, "UACC-257": {"tested_on": "UACC-257"}, "LXFL 529": {"tested_on": "LXFL 529"}, "SF-268": {"tested_on": "SF-268"}, "786-0": {"tested_on": "786-0"}, "NCI-H23": {"tested_on": "NCI-H23"}, "OVCAR-3": {"tested_on": "OVCAR-3"}, "OVCAR-5": {"tested_on": "OVCAR-5"}, "A498": {"tested_on": "A498"}, "NCI-H522": {"tested_on": "NCI-H522"}, "SK-MEL-28": {"tested_on": "SK-MEL-28"}, "IGROV-1": {"tested_on": "IGROV-1"}, "ACHN": {"tested_on": "ACHN"}, "RXF 393": {"tested_on": "RXF 393"}, "U-251": {"tested_on": "U-251"}, "SNB-75": {"tested_on": "SNB-75"}, "KM12": {"tested_on": "KM12"}, "M14": {"tested_on": "M14"}, "M19-MEL": {"tested_on": "M19-MEL"}, "MOLT-4": {"tested_on": "MOLT-4"}, "SR": {"tested_on": "SR"}, "SK-OV-3": {"tested_on": "SK-OV-3"}, "SF-295": {"tested_on": "SF-295"}, "SNB-19": {"tested_on": "SNB-19"}, "SNB-78": {"tested_on": "SNB-78"}, "SK-MEL-2": {"tested_on": "SK-MEL-2"}, "OVCAR-4": {"tested_on": "OVCAR-4"}, "Malme-3M": {"tested_on": "Malme-3M"}, "RPMI-8226": {"tested_on": "RPMI-8226"}, "HOP-62": {"tested_on": "HOP-62"}, "UACC-62": {"tested_on": "UACC-62"}, "KM-20L2": {"tested_on": "KM-20L2"}, "HOP-92": {"tested_on": "HOP-92"}, "NCI-H460": {"tested_on": "NCI-H460"}, "HL-60": {"tested_on": "HL-60"}, "COLO 205": {"tested_on": "COLO 205"}, "HT-29": {"tested_on": "HT-29"}, "SN12C": {"tested_on": "SN12C"}, "TK-10": {"tested_on": "TK-10"}, "CAKI-1": {"tested_on": "CAKI-1"}, "HCT-15": {"tested_on": "HCT-15"}, "LOX IMVI": {"tested_on": "LOX IMVI"}, "SW-620": {"tested_on": "SW-620"}, "OVCAR-8": {"tested_on": "OVCAR-8"}, "HCC 2998": {"tested_on": "HCC 2998"}, "CCRF-CEM": {"tested_on": "CCRF-CEM"}, "A549": {"tested_on": "A549"}, "DLD-1": {"tested_on": "DLD-1"}, "HCT-116": {"tested_on": "HCT-116"}, "SF-539": {"tested_on": "SF-539"}, "SK-MEL-5": {"tested_on": "SK-MEL-5"}, "EKVX": {"tested_on": "EKVX"}}, "note": "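96-well plates; 48 h exposure; 5 concentrations. Endpoints by linear interpolation between flanking doses. Not reached: highest tested concentration assigned. GI50 is the concentration that inhibits growth by half.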 Calls of active or inactive are those of the source. Cut-off read from the data, not from the text of the source: active = GI50 up to about 1.1 µM and inactive = higher."}
{"smiles": "COc1ccc2c(c1)CC[C@@H]1C2CC[C@]2(C)C(=O)N(CCN3CCCC3)C(=O)CC12", "note": "(stereo partly drawn)", "values": [{"measurement": "GI50", "setting": "DMS-114", "result": "26.5 µM (inactive)"}, {"measurement": "GI50", "setting": "K562", "result": "20.4 µM (inactive)"}, {"measurement": "GI50", "setting": "UO-31", "result": "17.9 µM (inactive)"}, {"measurement": "GI50", "setting": "UACC-257", "result": "18.5 µM (inactive)"}, {"measurement": "GI50", "setting": "LXFL 529", "result": "26.4 µM (inactive)"}, {"measurement": "GI50", "setting": "SF-268", "result": "35.1 µM (inactive)"}, {"measurement": "GI50", "setting": "786-0", "result": "18.3 µM (inactive)"}, {"measurement": "GI50", "setting": "NCI-H23", "result": "49.7 µM (inactive)"}, {"measurement": "GI50", "setting": "OVCAR-3", "result": "27.5 µM (inactive)"}, {"measurement": "GI50", "setting": "OVCAR-5", "result": "26.1 µM (inactive)"}, {"measurement": "GI50", "setting": "A498", "result": "27.9 µM (inactive)"}, {"measurement": "GI50", "setting": "NCI-H522", "result": "23.1 µM (inactive)"}, {"measurement": "GI50", "setting": "SK-MEL-28", "result": "19.5 µM (inactive)"}, {"measurement": "GI50", "setting": "IGROV-1", "result": "44.7 µM (inactive)"}, {"measurement": "GI50", "setting": "ACHN", "result": "59.3 µM (inactive)"}, {"measurement": "GI50", "setting": "RXF 393", "result": "34 µM (inactive)"}, {"measurement": "GI50", "setting": "U-251", "result": "43.9 µM (inactive)"}, {"measurement": "GI50", "setting": "SNB-75", "result": "15.1 µM (inactive)"}, {"measurement": "GI50", "setting": "KM12", "result": "29.4 µM (inactive)"}, {"measurement": "GI50", "setting": "M14", "result": "15.8 µM (inactive)"}, {"measurement": "GI50", "setting": "M19-MEL", "result": "18.2 µM (inactive)"}, {"measurement": "GI50", "setting": "MOLT-4", "result": "17.3 µM (inactive)"}, {"measurement": "GI50", "setting": "SR", "result": "31 µM (inactive)"}, {"measurement": "GI50", "setting": "SK-OV-3", "result": "66.7 µM (inactive)"}, {"measurement": "GI50", "setting": "SF-295", "result": "19.1 µM (inactive)"}, {"measurement": "GI50", "setting": "SNB-19", "result": "> 100 µM (inactive)"}, {"measurement": "GI50", "setting": "SNB-78", "result": "31.4 µM (inactive)"}, {"measurement": "GI50", "setting": "SK-MEL-2", "result": "17.8 µM (inactive)"}, {"measurement": "GI50", "setting": "OVCAR-4", "result": "84.3 µM (inactive)"}, {"measurement": "GI50", "setting": "Malme-3M", "result": "17 µM (inactive)"}, {"measurement": "GI50", "setting": "RPMI-8226", "result": "15.3 µM (inactive)"}, {"measurement": "GI50", "setting": "HOP-62", "result": "28.3 µM (inactive)"}, {"measurement": "GI50", "setting": "UACC-62", "result": "18.2 µM (inactive)"}, {"measurement": "GI50", "setting": "KM-20L2", "result": "21.4 µM (inactive)"}, {"measurement": "GI50", "setting": "HOP-92", "result": "17.8 µM (inactive)"}, {"measurement": "GI50", "setting": "NCI-H460", "result": "36.6 µM (inactive)"}, {"measurement": "GI50", "setting": "HL-60", "result": "18.7 µM (inactive)"}, {"measurement": "GI50", "setting": "COLO 205", "result": "17.7 µM (inactive)"}, {"measurement": "GI50", "setting": "HT-29", "result": "17.4 µM (inactive)"}]}
{"smiles": "c1ccc(C2(c3ccccc3)SSC3(S2)C2CC4CC(C2)CC3C4)cc1", "note": "(stereo not drawn)", "values": [{"measurement": "GI50", "setting": "DMS-114", "result": "> 100 µM (inactive)"}, {"measurement": "GI50", "setting": "K562", "result": "> 100 µM (inactive)"}, {"measurement": "GI50", "setting": "SN12C", "result": "> 100 µM (inactive)"}, {"measurement": "GI50", "setting": "UO-31", "result": "> 100 µM (inactive)"}, {"measurement": "GI50", "setting": "TK-10", "result": "> 100 µM (inactive)"}, {"measurement": "GI50", "setting": "UACC-257", "result": "> 100 µM (inactive)"}, {"measurement": "GI50", "setting": "LXFL 529", "result": "> 100 µM (inactive)"}, {"measurement": "GI50", "setting": "CAKI-1", "result": "> 100 µM (inactive)"}, {"measurement": "GI50", "setting": "SF-268", "result": "> 100 µM (inactive)"}, {"measurement": "GI50", "setting": "786-0", "result": "> 100 µM (inactive)"}, {"measurement": "GI50", "setting": "HCT-15", "result": "> 100", "unit": "µM"}, {"measurement": "GI50", "setting": "NCI-H23", "result": "> 100 µM (inactive)"}, {"measurement": "GI50", "setting": "LOX IMVI", "result": "> 100 µM (inactive)"}, {"measurement": "GI50", "setting": "OVCAR-5", "result": "> 100 µM (inactive)"}, {"measurement": "GI50", "setting": "A498", "result": "> 100 µM (inactive)"}, {"measurement": "GI50", "setting": "SK-MEL-28", "result": "> 100 µM (inactive)"}, {"measurement": "GI50", "setting": "SW-620", "result": "> 100 µM (inactive)"}, {"measurement": "GI50", "setting": "OVCAR-8", "result": "> 100 µM (inactive)"}, {"measurement": "GI50", "setting": "HCC 2998", "result": "> 100 µM (inactive)"}, {"measurement": "GI50", "setting": "IGROV-1", "result": "> 100 µM (inactive)"}, {"measurement": "GI50", "setting": "ACHN", "result": "> 100 µM (inactive)"}, {"measurement": "GI50", "setting": "RXF 393", "result": "> 100 µM (inactive)"}, {"measurement": "GI50", "setting": "CCRF-CEM", "result": "39.7 µM (inactive)"}, {"measurement": "GI50", "setting": "U-251", "result": "> 100 µM (inactive)"}, {"measurement": "GI50", "setting": "SNB-75", "result": "> 100 µM (inactive)"}, {"measurement": "GI50", "setting": "KM12", "result": "> 100 µM (inactive)"}, {"measurement": "GI50", "setting": "M14", "result": "> 100 µM (inactive)"}, {"measurement": "GI50", "setting": "MOLT-4", "result": "> 56.6 µM (inactive)"}, {"measurement": "GI50", "setting": "SR", "result": "> 59.2 µM (inactive)"}, {"measurement": "GI50", "setting": "SK-OV-3", "result": "> 100 µM (inactive)"}, {"measurement": "GI50", "setting": "SF-295", "result": "> 100 µM (inactive)"}, {"measurement": "GI50", "setting": "SNB-19", "result": "> 100 µM (inactive)"}, {"measurement": "GI50", "setting": "SNB-78", "result": "> 100 µM (inactive)"}, {"measurement": "GI50", "setting": "SK-MEL-2", "result": "> 100 µM (inactive)"}, {"measurement": "GI50", "setting": "A549", "result": "> 100 µM (inactive)"}, {"measurement": "GI50", "setting": "OVCAR-4", "result": "> 100 µM (inactive)"}, {"measurement": "GI50", "setting": "DLD-1", "result": "> 100 µM (inactive)"}, {"measurement": "GI50", "setting": "Malme-3M", "result": "> 100 µM (inactive)"}, {"measurement": "GI50", "setting": "RPMI-8226", "result": "37.2 µM (inactive)"}, {"measurement": "GI50", "setting": "HCT-116", "result": "> 100 µM (inactive)"}, {"measurement": "GI50", "setting": "UACC-62", "result": "> 100 µM (inactive)"}, {"measurement": "GI50", "setting": "KM-20L2", "result": "> 100 µM (inactive)"}, {"measurement": "GI50", "setting": "HOP-92", "result": "> 100 µM (inactive)"}, {"measurement": "GI50", "setting": "NCI-H460", "result": "> 100 µM (inactive)"}, {"measurement": "GI50", "setting": "SF-539", "result": "> 100 µM (inactive)"}, {"measurement": "GI50", "setting": "HL-60", "result": "35.9 µM (inactive)"}, {"measurement": "GI50", "setting": "SK-MEL-5", "result": "> 100 µM (inactive)"}, {"measurement": "GI50", "setting": "EKVX", "result": "> 100 µM (inactive)"}, {"measurement": "GI50", "setting": "HT-29", "result": "> 100 µM (inactive)"}]}
